Experimental data reported in patent publication EP3628659A1, “SELENOESTER-CONTAINING COMPOUNDS FOR USE IN THE TREATMENT OF MICROBIAL INFECTIONS OR COLORECTAL CANCER” (Consejo Superior De Investigaciones Científicas, priority 2018, dated 2020).
Like-named read-outs stand apart in the source and are kept apart here.

Tests used:
[1] = tested on: Colo 205 doxorubicin-sensitive; assay: Cytotoxicity assay (MTT) in Colo 205 cells; assay type: cell-based, human; conditions: for IC50: Homo sapiens, COLO 205, 24 h, read-out: Colo 205 Cytotoxicity; for SI (MRC-5/Colo205): quotient of IC50 in MRC-5 and IC50 in Colo-205
Experimental: (§1) Cytotoxicity assays in human colonic adenocarcinoma cell lines Colo 205 doxorubicin-sensitive (ATCC-CCL-222) and Colo 320/MDR-LRP multidrug resistant overexpressing ABCB1 (MDR1)-LRP (ATCC-CCL-220.1) were performed following the procedure described by Gajdács et al, 2017, Bioorg Med Chem Lett. 27(4): 797-802. The effects of increasing concentrations of selenium compounds on cell growth were tested in 96-well flat-bottomed microtiter plates. The selectivity of the action towards cancer cells was assessed through the evaluation of cytotoxic activity in a non-tumoral cell line, the MRC-5 human embryonal lung fibroblast cell lines (ATCC CCL-171), as described in Gajdács et al, 2017, Bioorg Med Chem Lett. 27(4): 797-802.
(§2) All cell lines were purchased from LGC Promochem, Teddington, UK. The colonic cells were cultured in RPMI 1640 medium supplemented with 10% heat-inactivated fetal bovine serum, 2 mM L-glutamine, 1 mM Na-pyruvate and 100 mM Hepes. The cell lines were incubated at 37°C, in a 5% CO2, 95% air atmosphere. The semi-adherent human colon cancer cells were detached with Trypsin-Versene (EDTA) solution for 5 min at 37°C. Alternatively, MRC-5 cells was cultured in Eagle's Minimal Essential Medium (EMEM, containing 4.5 g/L glucose) supplemented with a non-essential amino acid mixture, a selection of vitamins and 10% heat-inactivated fetal bovine serum. The cell lines were incubated at 37°C, in a 5% CO2, 95% air atmosphere.
(§3) The compounds were diluted in a volume of 100 µL of medium. The two-fold serial dilutions of selenocompounds were prepared in 100 µL of RPMI 1640, horizontally. The semi-adherent colonic adenocarcinoma cells were treated with Trypsin-Versene (EDTA) solution. They were adjusted to a density of 2×10^4 cells in 100 µL of RPMI 1640 medium, and were added to each well, with the exception of the medium control wells. The final volume of the wells containing selenocompounds and cells was 200 µL.
(§4) The culture plates were incubated at 37°C for 24 h; at the end of the incubation period, 20 µL of MTT (thiazolyl blue tetrazolium bromide, Sigma) solution (from a stock solution of 5 mg/mL) were added to each well. After incubation at 37°C for 4 h, 100 µL of sodium dodecyl sulfate (SDS) (Sigma) solution (10% in 0.01 M HCI) were added to each well and the plates were further incubated at 37°C overnight. Cell growth was determined by measuring the optical density (OD) at 540/630 nm with Multiscan EX ELISA reader (Thermo Labsystems, Cheshire, WA, USA). Inhibition of the cell growth was determined according to the formula below: […] = 100−[(OD sample−OD medium control)/(OD cell control−OD medium control)] × 100 [formula]
(§5) Results are expressed in terms of IC50, defined as the inhibitory dose that reduces the growth of the cells exposed to the tested compounds by 50%. Regarding the selectivity, the selectivity indexes (SI) were calculate, being SI the quotient of the IC50 in non-tumoral cells (MRC-5) and the respective cancer cell (Colo-205 or Colo-320). Compound is considered moderately selective when SI < 6 and ≥ 3; and strongly selective when SI ≥ 6.

[2] = tested on: Colo 320/MDR-LRP multidrug resistant overexpressing ABCB1 (MDR1)-LRP; assay: cells; assay type: cell-based, human; conditions: for IC50: Homo sapiens, 24 h, read-out: Colo 320 Cytotoxicity; for SI (MRC-5/Colo320): quotient of IC50 in MRC-5 and IC50 in Colo-320
Experimental: as §1, §2, §3, §4, §5

[3] = Cytotoxicity assay (MTT) in non-tumoral MRC-5 cells; assay type: cell-based; conditions: human, IC50 class, non-tumoral cell line; for IC50 at 24 h: MRC-5 embryonal lung fibroblast cells (non-tumoral)
Experimental: as §1, §2, §3, §4, §5

Escherichia coli AG100 A = assay: MIC determination (CLSI), E. coli AG100 A; assay type: cell-based; conditions: MIC class
Experimental: The effects exerted by different concentrations of the compounds on bacterial growth in Staphylococcus aureus 25923 ATCC, Staphylococcus aureus multidrug resistant 272123 clinical isolate (MRSA), Escherichia coli AG100 or Escherichia coli AG100 A were tested in 96-well plates. The MIC of selenocompounds was determined according to Clinical and Laboratory Standard Institute (CLSI) guidelines. The solvent used (DMSO) had no antibacterial effect. Alternatively, the MICs of oxacillin of the compounds in MRSA HEMSA 5 were determined by a broth microdilution method in cation-adjusted Mueller-Hinton Broth (MHB II) according to the recommendations of the CLSI. Results were recorded after a 20- or 24-hour incubation at 37°C.

Candida albicans = assay: Antifungal activity (optical density), Candida albicans; assay type: cell-based; conditions: IC50 class, tested at 50, 100, 150 and 200 µM, OD 570 nm, 37 °C
Experimental: (§6) The compounds were tested for their antifungal and nematicidal properties against the fungi Candida albicans and Saccharomyces cerevisiae, and against the nematode Steinernema feltiae.
(§7) Fungal cell densities were determined by measuring the optical density (OD) at 570 nm at 0 h (first measurement immediately after incubation), 4 h, and 24 h after incubation at 37 °C; and using a Universal Microplate Reader, EL800, Biotech Instruments, Inc. Highland Park, Winooski, VT, USA. Compounds were dissolved in 1% DMSO and were tested at final concentrations of 50, 100, 150, and 200 µM. Nutrient Sabouraud Dextrose (SD), and Yeast Peptone Dextrose (YPD) were used as media for C. albicans, and S. cerevisiae, respectively. Ketoconazole was used as the positive control for C. albicans and S. cerevisiae. The growth culture with medium for each organism was used as the negative control. The Solvent 1% DMSO stock was used as a solvent control. All experiments were carried out in triplicate and on three different occasions (n = 9).
(§8) For the three organisms considered (C. albicans, S. cerevisiae and S. feltiae), the inhibitory concentration 50% (IC50) is defined as the concentration that inhibits the viability of the respective organism to a 50% of the viability determined for the negative control.

Saccharomyces cerevisiae = assay: Antifungal activity (optical density), Saccharomyces cerevisiae; assay type: cell-based
Experimental: as §6, §7, §8

[4] = read-out: Antifungal activity Saccharomyces cerevisiae, IC50 class, tested at 50, 100, 150 and 200 µM, OD 570 nm, 37 °C, read-out: Antifungal activity Streptomyces cerevisiae

| SMILES | IC50 [1] | SI (MRC-5/Colo205) [1] | IC50 [2] | SI (MRC-5/Colo320) [2] | IC50 at 24 h [3] | Antibacterial activity Against E. coli AG100 A (Escherichia coli AG100 A) | IC50 (Candida albicans) | IC50 (Saccharomyces cerevisiae; [4]) | CC50 ([3]; mrc-5 cells) | IC50 (Saccharomyces cerevisiae; read-out: Antifungal activity Saccharomyces cerevisiae) |
| --- | --- | --- | --- | --- | --- | --- | --- | --- | --- | --- |
| N#CC[Se]C(=O)c1ccc(C(=O)[Se]CC#N)cc1 [Compound 18, Se,Se-bis-(cyanomethyl) benzene-1,4-bis-(carboselenoate)] | 1 to 10 µM | *** (Strongly selective compounds: SI ≥ 6) | 1 to 10 µM | *** (Strongly selective compounds: SI ≥ 6) | > 50 µM | ** (Moderate antibacterial compounds: 10 µM < MIC ≤ 50 µM) | 50 to 100 µM | > 100 µM | – | – |
| CC(=O)C[Se]C(=O)c1cccc(C(=O)[Se]CC(C)=O)c1 [Compound 23, Se,Se-bis-(2-oxopropyl) benzene-1,3-bis-(carboselenoate)] | < 1 µM | * (Slightly selective compounds: 1 ≤ SI < 3) | < 1 µM | * (Slightly selective compounds: 1 ≤ SI < 3) | 1 to 10 µM | ** (Moderate antibacterial compounds: 10 µM < MIC ≤ 50 µM) | 10 to 50 µM | > 100 µM | – | – |
| CC(=O)C[Se]C(=O)c1cc(C(=O)[Se]CC(C)=O)cc(C(=O)[Se]CC(C)=O)c1 [Compound 24, Se,Se,Se-tris-(2-oxopropyl) benzene-1,3,5-tris-(carboxyselenoate)] | < 1 µM | * (Slightly selective compounds: 1 ≤ SI < 3) | < 1 µM | * (Slightly selective compounds: 1 ≤ SI < 3) | < 1 µM | ** (Moderate antibacterial compounds: 10 µM < MIC ≤ 50 µM) | > 100 µM | > 100 µM | – | – |
| CC(=O)C[Se]C(=O)c1ccc(C(=O)[Se]CC(C)=O)cc1 [Compound 22, Se,Se-bis-(2-oxopropyl) benzene-1,4-bis-(carboselenoate)] | < 1 µM | * (Slightly selective compounds: 1 ≤ SI < 3) | < 1 µM | * (Slightly selective compounds: 1 ≤ SI < 3) | < 1 µM | ** (Moderate antibacterial compounds: 10 µM < MIC ≤ 50 µM) | 10 to 50 µM | 50 to 100 µM | – | – |
| N#CC[Se]C(=O)c1cc(C(=O)[Se]CC#N)cc(C(=O)[Se]CC#N)c1 [Compound 20, Se,Se,Se-tris-(cyanomethyl) benzene-1,3,5-tris-(carboxyselenoate)] | < 1 µM | *** (Strongly selective compounds: SI ≥ 6) | 1 to 10 µM | *** (Strongly selective compounds: SI ≥ 6) | > 50 µM | NA (Not antibacterial compounds: MIC ≥ 100 µM) | 10 to 50 µM | 10 to 50 µM | – | – |
| N#CC[Se]C(=O)c1cccc(C(=O)[Se]CC#N)c1 [Compound 19, Se,Se-bis-(cyanomethyl)benzene-1,3-bis-(carboselenoate)] | 1 to 10 µM | *** (Strongly selective compounds: SI ≥ 6) | 1 to 10 µM | *** (Strongly selective compounds: SI ≥ 6) | – | NA (Not antibacterial compounds: MIC ≥ 100 µM) | 10 to 50 µM | – | > 50 µM | 10 to 50 µM |
